Measurements: US11419801B2, “Personal care composition” (Conopco, Inc., priority 2017, dated 2022)

test system: IL-6; assay: Anti-inflammation efficacy in THP-1 in vitro assay: IL-6 in supernatant of PMA-differentiated, LPS-stimulated THP-1 monocytes (BD Elisa kit); type: cell-based; details: Table 1, LPS 1 μg/ml, 24 hours incubation, concentration of active(s) as given per example, lower = higher anti-inflammatory potential
Method: The following procedure was used to test the anti-inflammation efficacy of the various actives alone as well as in combination. In the examples, HR means hexyl resorcinol, DHA means docosahexaenoic acid. • (i) 5×10^5 THP-1 monocytes were placed into 24-well plates, with 100 nM […] in the culture media to differentiate the cells. • (ii) After 72 hours differentiation, treatments as follows were applied to the cells. […] (2) LPS-1 μg/ml; (3) Dex-50 nM; (4) DHA-200 μM; (5) DHA-100 μM; (6) DHA-20 μM; (7) HR-50 μM; (8) HR-25 μM; (9) HR-100 μM; […] (11) DHA-100 μM+HR-50 μM; (12) DHA-100 μM+HR-25 μM; (13) DHA-20 μM+HR-100 μM (14) DHA-20 μM+HR-10 μM. • (iii) After 24 hours incubation the supernatants were collected. • (iv) Then IL-6 concentration was tested in the supernatant by BD Elisa kit. The lower the percentage, the higher the anti-inflammatory potential. […] Further information about the experiment nos 12 to 24 is as follows: • Example 12: […] Combination of 50 μM DHA and 12.5 μM of HR. • Example 23: […] Combination of 50 μM DHA and 12.5 μM of ZnCl2. • Example 31: […] Combination of 12.5 μM DHA and 3.125 μM of ZnCl2. Experiments were carried out, according to the procedure described earlier, at various concentrations of DHA along with certain other actives outside the invention viz. BOP (benzoyl peroxide) and SDS (sodium dodecyl sulphate). These actives have been disclosed as additional ingredients in EP0138480 A1. The data below is expressed in % IL-6 inhibition rate in Table-3 below. • Example 33, 34, 35, 36: […] Combination of 50 μM DHA and 12.5 μM of BPO. • Example 43: […] Combination of 12.5 μM DHA and 3.125 μM of BPO. • Example 45, 46, 47, 48: […] Combination of 50 μM DHA and 12.5 μM of SDS. • Example 51: […] Combination of 12.5 μM DHA and 3.125 μM of SDS.

First: CC/C=C\C/C=C\C/C=C\C/C=C\C/C=C\C/C=C\CCC(=O)O [Example 2, docosahexaenoic acid]
Second: CCCCCCc1ccc(O)cc1O [Example 4, hexyl resorcinol]
The “concentration of IL-6 as a % of that obtained for LPS (% of LPS)” value (from here on “concentration of IL-6 as a % … (% of LPS)”) of the first is lower: 14.7% for the first, 41.1% for the second.

Going from `CC/C=C\C/C=C\C/C=C\C/C=C\C/C=C\C/C=C\CCC(=O)O` [Example 3, docosahexaenoic acid] to `CCCCCCc1ccc(O)cc1O` [Example 5, hexyl resorcinol], the “concentration of IL-6 as a % … (% of LPS)” value falls from 58.5% to 54.5%.

For `CCCCCCc1ccc(O)cc1O` [Example 6, hexyl resorcinol], the “concentration of IL-6 as a % … (% of LPS)” value was 41.1%.
In the case of `CCCCCCc1ccc(O)cc1O` [Example 7, hexyl resorcinol], the “concentration of IL-6 as a % … (% of LPS)” value was 63.1%.

same assay, conditions: Table 2, LPS 1 μg/mL, DHA, HR, ZnCl2 alone and combined, concentration per example

Going from `CC/C=C\C/C=C\C/C=C\C/C=C\C/C=C\C/C=C\CCC(=O)O` [Example 13, docosahexaenoic acid] to `CCCCCCc1ccc(O)cc1O` [Example 17, hexyl resorcinol], the “% of LPS (IL-6)” value rises from 9.9% to 43.0%.

Going from `CC/C=C\C/C=C\C/C=C\C/C=C\C/C=C\C/C=C\CCC(=O)O` [Example 14, docosahexaenoic acid] to `CCCCCCc1ccc(O)cc1O` [Example 18, hexyl resorcinol], the “% of LPS (IL-6)” value rises from 29.0% to 55.4%.

First: CC/C=C\C/C=C\C/C=C\C/C=C\C/C=C\C/C=C\CCC(=O)O [Example 15, docosahexaenoic acid]
Second: CCCCCCc1ccc(O)cc1O [Example 19, hexyl resorcinol]
The “% of LPS (IL-6)” value of the first is lower: 48.8% for the first, 60.3% for the second.

Compared with `CC/C=C\C/C=C\C/C=C\C/C=C\C/C=C\C/C=C\CCC(=O)O` [Example 16, docosahexaenoic acid], `CCCCCCc1ccc(O)cc1O` [Example 20, hexyl resorcinol] is higher in “% of LPS (IL-6)” value: 63.1% for the first, 66.4% for the second.

With `[Cl-].[Cl-].[Zn+2]` [Example 25, Zinc chloride] the “% of LPS (IL-6)” value was 93.4%.
For `[Cl-].[Cl-].[Zn+2]` [Example 26, Zinc chloride], the “% of LPS (IL-6)” value was 96.3%.
`[Cl-].[Cl-].[Zn+2]` [Example 27, Zinc chloride] was tested, and the “% of LPS (IL-6)” value was 97.7%.
For `[Cl-].[Cl-].[Zn+2]` [Example 28, Zinc chloride], the “% of LPS (IL-6)” value was 91.6%.

same assay, conditions: Table 3, LPS 1 μg/mL, DHA, BPO, SDS alone and combined, concentration per example

Going from `CC/C=C\C/C=C\C/C=C\C/C=C\C/C=C\C/C=C\CCC(=O)O` [Example 33, docosahexaenoic acid] to `O=C(OOC(=O)c1ccccc1)c1ccccc1` [Example 37, benzoyl peroxide], the “% of LPS (IL-6)” value rises from 10.7% to 103.4%.

Compared with `CC/C=C\C/C=C\C/C=C\C/C=C\C/C=C\C/C=C\CCC(=O)O` [Example 34, docosahexaenoic acid], `O=C(OOC(=O)c1ccccc1)c1ccccc1` [Example 38, benzoyl peroxide] is higher in “% of LPS (IL-6)” value: 36.0% for the first, 100.6% for the second.

Compared with `CC/C=C\C/C=C\C/C=C\C/C=C\C/C=C\C/C=C\CCC(=O)O` [Example 35, docosahexaenoic acid], `O=C(OOC(=O)c1ccccc1)c1ccccc1` [Example 39, benzoyl peroxide] is higher in “% of LPS (IL-6)” value: 56.8% for the first, 102.7% for the second.

Compared with `CC/C=C\C/C=C\C/C=C\C/C=C\C/C=C\C/C=C\CCC(=O)O` [Example 36, docosahexaenoic acid], `O=C(OOC(=O)c1ccccc1)c1ccccc1` [Example 40, benzoyl peroxide] is higher in “% of LPS (IL-6)” value: 72.0% for the first, 95.1% for the second.

same assay, conditions: Table 3, LPS 1 μg/mL, DHA, BPO, SDS alone and combined, concentration per example, sulphate

For `CCCCCCCCCCCCOS(=O)(=O)[O-].[Na+]` [Example 45, sodium dodecyl sulphate], the “% of LPS (IL-6)” value was 84.6%.
With `CCCCCCCCCCCCOS(=O)(=O)[O-].[Na+]` [Example 46, sodium dodecyl sulphate] the “% of LPS (IL-6)” value was 86.1%.
`CCCCCCCCCCCCOS(=O)(=O)[O-].[Na+]` [Example 47, sodium dodecyl sulphate] was tested, and the “% of LPS (IL-6)” value was 81.3%.
In the case of `CCCCCCCCCCCCOS(=O)(=O)[O-].[Na+]` [Example 48, sodium dodecyl sulphate], the “% of LPS (IL-6)” value was 80.5%.
